Assay results reported in US8735414B2 (priority 2009, dated 2014).

Legend:
[1] = tested on: bicistronic HCV replicon (replicon RNA, GenBank Accession No. AJ242654); experiment: HCV Replicon Assay; format: cell-based; conditions: Hepatitis C virus, 72 h, read-out: Replicon IC50

| SMILES | IC50 [1] [nM] | melting point |
| --- | --- | --- |
| CCc1cc2c(cc1F)c(C#N)c(-c1ccc(S(=O)(=O)NC3(C)CC3)cn1)n2-c1ncccn1 [compound 860, 6-[3-cyano-6-ethyl-5-fluoro-1-(pyrimidin-2-yl)-1H-indol-2-yl]-N-(1-methylcyclopropyl)pyridine-3-sulfonamide] | < 500 | 169 to 179 °C |
| Cc1ccc2c(C#N)c(-c3ccc(S(=O)(=O)NC4(C(F)(F)F)CCC4)cn3)n(C3CCC3)c2c1 [compound 587, 6-(3-cyano-1-cyclobutyl-6-methyl-1H-indol-2-yl)-N-[1-(trifluoromethyl)cyclobutyl]pyridine-3-sulfonamide] | < 500 | 228 to 232 °C |
| Cc1ccc2c(C#N)c(-c3ccc(S(=O)(=O)NC4(C(F)(F)F)CC4)cn3)n(C3CCCC3)c2c1 [compound 190, 6-(3-cyano-1-cyclopentyl-6-methyl-1H-indol-2-yl)-N-[1-(trifluoromethyl)cyclopropyl]pyridine-3-sulfonamide] | < 500 | 199 to 210 °C |
| C[C@@H](NS(=O)(=O)c1ccc(-c2c(C#N)c3cc(F)c(C4CC4)cc3n2C2CCCC2)nc1)C(F)(F)F [compound 662, 6-(3-cyano-1-cyclopentyl-6-cyclopropyl-5-fluoro-1H-indol-2-yl)-N-[(2R)-1,1,1-trifluoropropan-2-yl]pyridine-3-sulfonamide] | < 500 | 180 to 181 °C |
| Cc1ccc2c(C#N)c(-c3ccc(NS(=O)(=O)C4CC4)cn3)n(C3CCC3)c2c1 [compound 297, N-[6-(3-cyano-1-cyclobutyl-6-methyl-1H-indol-2-yl)pyridin-3-yl]cyclopropanesulfonamide] | 500 to 2000 | 200 to 205 °C |
| Cc1cc2c(cc1Br)c(C#N)c(-c1ccc(S(=O)(=O)N[C@H](C)C(F)(F)F)cn1)n2C1CCCC1 [compound 692, 6-(5-bromo-3-cyano-1-cyclopentyl-6-methyl-1H-indol-2-yl)-N-[(2R)-1,1,1-trifluoropropan-2-yl]pyridine-3-sulfonamide] | < 500 | 226.5 to 227 °C |
| N#Cc1c(-c2ccc(S(=O)(=O)NC3CC(F)(F)C3)cn2)n(C2CCC2)c2cc(C3CC3)ccc12 [compound 247, 6-(3-cyano-1-cyclobutyl-6-cyclopropyl-1H-indol-2-yl)-N-(3,3-difluorocyclobutyl)pyridine-3-sulfonamide] | 500 to 2000 | 176 to 178 °C |
| CC(C)(C)S(=O)(=O)Nc1ccc(-c2c(C(N)=O)c3c(F)cc(C4CC4)cc3n2C2CCCCC2)nc1 [compound 1097, 2-{5-[(tert-butylsulfonyl)amino]pyridin-2-yl}-1-cyclohexyl-6-cyclopropyl-4-fluoro-1H-indole-3-carboxamide] | < 500 | 275 to 285 °C (dec.) |
| Cc1ccc2c(c1)c(C#N)c(-c1ccc(S(=O)(=O)NC(C)(C)C(F)(F)F)cn1)n2C1CCCC1 [compound 607, 6-(3-cyano-1-cyclopentyl-5-methyl-1H-indol-2-yl)-N-(1,1,1-trifluoro-2-methylpropan-2-yl)pyridine-3-sulfonamide] | < 500 | 176 to 181 °C |
| N#Cc1c(-c2ccc(S(=O)(=O)NC(CF)CF)cn2)n(C2CCCCC2)c2cc(OC(F)F)ccc12 [compound 100, 6-[3-cyano-1-cyclohexyl-6-(difluoromethoxy)-1H-indol-2-yl]-N-(1,3-difluoropropan-2-yl)pyridine-3-sulfonamide] | < 500 | 175 to 178 °C |
| CC(=O)c1cc2c(cc1F)c(C#N)c(-c1ccc(S(=O)(=O)N[C@@H](C)C(F)(F)F)cn1)n2-c1ncccn1 [compound 907, 6-[6-acetyl-3-cyano-5-fluoro-1-(pyrimidin-2-yl)-1H-indol-2-yl]-N-[(2S)-1,1,1-trifluoropropan-2-yl]pyridine-3-sulfonamide] | < 500 | 220 to 221 °C |
| C[C@H](NS(=O)(=O)c1ccc(-c2c(C#N)c3ccc(OC(F)(F)F)cc3n2C2CCCC2)nc1)C1CC1 [compound 320, 6-[3-cyano-1-cyclopentyl-6-(trifluoromethoxy)-1H-indol-2-yl]-N-[(1S)-1-cyclopropylethyl]pyridine-3-sulfonamide] | 500 to 2000 | 133 to 134 °C |
| CCCS(=O)(=O)Nc1ccc(-c2c(C#N)c3ccc(Oc4nccnc4C#N)cc3n2C2CCC2)nc1 [compound 273, N-(6-{3-cyano-6-[(3-cyanopyrazin-2-yl)oxy]-1-cyclobutyl-1H-indol-2-yl}pyridin-3-yl)propane-1-sulfonamide] | < 500 | 252 to 254 °C |
| C[C@@H](NS(=O)(=O)c1ccc(-c2c(C#N)c3ccc(CF)cc3n2C2CCC2)nc1)C(F)(F)F [compound 319, 6-[3-cyano-1-cyclobutyl-6-(fluoromethyl)-1H-indol-2-yl]-N-[(2R)-1,1,1-trifluoropropan-2-yl]pyridine-3-sulfonamide] | 500 to 2000 | 200 to 213 °C |
| Cc1cc2c(cc1O)c(C(N)=O)c(-c1ccc(S(=O)(=O)NC(C)(C)C)cn1)n2C1CCC1 [compound 828, 2-[5-(tert-butylsulfamoyl)pyridin-2-yl]-1-cyclobutyl-5-hydroxy-6-methyl-1H-indole-3-carboxamide] | 2000 to 5000 | 292 to 293 °C |
| Cc1cc2c(cc1F)c(C#N)c(-c1ccc(S(=O)(=O)N[C@@H](C)C(F)(F)F)cn1)n2C1CCCC1 [compound 408, 6-(3-cyano-1-cyclopentyl-5-fluoro-6-methyl-1H-indol-2-yl)-N-[(2S)-1,1,1-trifluoropropan-2-yl]pyridine-3-sulfonamide] | < 500 | 168 to 171 °C |
| Cc1ccc2c(c1)c(C#N)c(-c1ccc(S(=O)(=O)N[C@@H](C)C(F)(F)F)cn1)n2C1CCCCC1 [compound 560, 6-(3-cyano-1-cyclohexyl-5-methyl-1H-indol-2-yl)-N-[(2S)-1,1,1-trifluoropropan-2-yl]pyridine-3-sulfonamide] | < 500 | 175 to 180 °C |
| N#Cc1c(-c2ncc(S(=O)(=O)NC(CF)CF)cn2)n(C2CCCCC2)c2cc(Cl)ccc12 [compound 517, 2-(6-chloro-3-cyano-1-cyclohexyl-1H-indol-2-yl)-N-(1,3-difluoropropan-2-yl)pyrimidine-5-sulfonamide] | < 500 | 228 to 234 °C |
| Cc1ccc2c(c1)c(C#N)c(-c1ncc(S(=O)(=O)N[C@@H](C)C(F)(F)F)cn1)n2C1CCCCC1 [compound 390, 2-(3-cyano-1-cyclohexyl-5-methyl-1H-indol-2-yl)-N-[(2S)-1,1,1-trifluoropropan-2-yl]pyrimidine-5-sulfonamide] | 500 to 2000 | 218 to 223 °C |
| Cc1cc2c(cc1F)c(C#N)c(-c1ccc(S(=O)(=O)N[C@@H](C)C(F)(F)F)cn1)n2-c1ccc(F)nc1 [compound 1015, 6-[3-cyano-5-fluoro-1-(6-fluoropyridin-3-yl)-6-methyl-1H-indol-2-yl]-N-[(2S)-1,1,1-trifluoropropan-2-yl]pyridine-3-sulfonamide] | < 500 | 246.8 to 252.7 °C |
| COc1ccc2c(C#N)c(-c3ccc(S(=O)(=O)N[C@H](C)C(F)(F)F)cn3)n(C3CCC3)c2c1 [compound 428, 6-(3-cyano-1-cyclobutyl-6-methoxy-1H-indol-2-yl)-N-[(2R)-1,1,1-trifluoropropan-2-yl]pyridine-3-sulfonamide] | < 500 | 206 to 212 °C |
| C[C@@H](NS(=O)(=O)c1ccc(-c2c(C#N)c3cc(F)ccc3n2C2CCCC2)nc1)C(F)(F)F [compound 220, 6-(3-cyano-1-cyclopentyl-5-fluoro-1H-indol-2-yl)-N-[(2R)-1,1,1-trifluoropropan-2-yl]pyridine-3-sulfonamide] | < 500 | 158 to 160 °C |
| COc1ccc2c(C#N)c(-c3ccc(S(=O)(=O)N[C@@H](C)C4CC4)cn3)n(C3CCCC3)c2c1 [compound 432, 6-(3-cyano-1-cyclopentyl-6-methoxy-1H-indol-2-yl)-N-[(1S)-1-cyclopropylethyl]pyridine-3-sulfonamide] | < 500 | 199 to 209 °C |
| CC(C)NS(=O)(=O)c1cnc(-c2c(C#N)c3ccc(OC(F)F)cc3n2C2CCC2)nc1 [compound 127, 2-[3-cyano-1-cyclobutyl-6-(difluoromethoxy)-1H-indol-2-yl]-N-(propan-2-yl)pyrimidine-5-sulfonamide] | < 500 | 192 to 194 °C |
| C[C@H](NS(=O)(=O)c1ccc(-c2c(C#N)c3ccc(OC(F)F)cc3n2-c2ncccn2)nc1)C(F)(F)F [compound 512, 6-[3-cyano-6-(difluoromethoxy)-1-(pyrimidin-2-yl)-1H-indol-2-yl]-N-[(2S)-1,1,1-trifluoropropan-2-yl]pyridine-3-sulfonamide] | < 500 | 186 to 189 °C |
| C[C@@H](NS(=O)(=O)c1ccc(-c2c(C#N)c3ccc(Cl)cc3n2-c2ccccn2)nc1)C(F)(F)F [compound 489, 6-[6-chloro-3-cyano-1-(pyridin-2-yl)-1H-indol-2-yl]-N-[(2R)-1,1,1-trifluoropropan-2-yl]pyridine-3-sulfonamide] | 500 to 2000 | 198 to 199 °C |
| Cc1ccc2c(c1)c(C#N)c(-c1ncc(S(=O)(=O)N[C@@H](C)C3CC3)cn1)n2C1CCCC1 [compound 562, 2-(3-cyano-1-cyclopentyl-5-methyl-1H-indol-2-yl)-N-[(1S)-1-cyclopropylethyl]pyrimidine-5-sulfonamide] | < 500 | 168 to 171 °C |
| Cc1cc2c(cc1F)c(C(N)=O)c(-c1ccc(S(=O)(=O)N[C@H](C)C(F)(F)F)cn1)n2C1CCC1 [compound 732, 1-cyclobutyl-5-fluoro-6-methyl-2-(5-{[(2R)-1,1,1-trifluoropropan-2-yl]sulfamoyl}pyridin-2-yl)-1H-indole-3-carboxamide] | < 500 | 195 to 197 °C |
